How the values were obtained:
IRE1α = target: T1, IRE1α (Homo sapiens, UniProt O75460); experiment: Biochemical assay: inhibition of RNase activity of IRE1α; conditions: enzyme 0.325 nM, substrate 100 nM, 20 minutes
T1 construct: purchased Signal Chem E31-11G
Protocol: Biochemical Assay: Inhibition of RNase Activity of IRE1α
The RNase reactions were performed in 384 well black ProxiPlate-384 Plus plates (PERKIN Elmer) using 50 mM Tris assay buffer with 0.5 mM MgCl2, 10 mM KCl, 0.03% Tween, 2 mM DTT and 1% DMSO. Test compounds were prepared on the day of assay and dispensed using D300 digital dispenser as a 10-point ½ log dilution series in duplicate, normalized to a final DMSO concentration of […]. Test compounds were pre-incubated for 30 min at room temperature with IRE1α kinase (E31-11G from Signal Chem) in 2.5 μL of assay buffer. Then 2.5 μl of assay buffer containing substrate (5′ Alexa Fluor 647-rCrArU rGrUrC rCrGrC rArGrC rGrCrArUrG-Iowa Black RQ quencher 3′) added, giving a final concentration of enzyme of 0.325 nM and of substrate of 100 nM. After 20 minutes incubation at room temperature the reactions were stopped by added 5 μL of 5M urea, incubated at room temperature for 10 minutes and fluorescence measured on a plate reader (EnVision, PerkinElmer). IC50 values calculated by fitting a sigmoidal curve to percent inhibition of control versus compound concentration.

[1] = tested on: ARPE-19 cells stably expressing XBP1 (a.a. 1-376); experiment: Cellular XBP1 splicing assay (NanoLuc luciferase, thapsigargin); assay type: cell-based; conditions: thapsigargin 150 nM
Protocol: Cellular XBP1 Splicing Assay
ARPE-19 cells stably expressing XBP1 (a.a. 1-376) with nano-luciferase gene sequence linked so it is in frame when XBP1 is spliced, were cultured in F12 media, 10% FBS, 0.044% sodium bicarbonate, 150 μg/ml hygromycin B and seeded for assays at 5,000 cells in 384 well plates in culture media without hygromycin B and incubated at 37° C./5% CO2. After overnight incubation test compounds were added to the cell plate in a 10-point ½ log dilution series in duplicate (final DMSO concentration 0.117%). After further incubation of 30 minutes thapsigargin was added (final concentration 150 nM) and then another 4 hour incubation. A NanoLuc luciferase assay (Promega) was used according to the manufacturer's instructions to detect the luciferase and luminescence measured on a luminometer (EnVision, PerkinElmer). IC50 values calculated by fitting a sigmoidal curve to percent inhibition of control of compound concentration.

T1 sequence (O75460 468-977 limits assumed): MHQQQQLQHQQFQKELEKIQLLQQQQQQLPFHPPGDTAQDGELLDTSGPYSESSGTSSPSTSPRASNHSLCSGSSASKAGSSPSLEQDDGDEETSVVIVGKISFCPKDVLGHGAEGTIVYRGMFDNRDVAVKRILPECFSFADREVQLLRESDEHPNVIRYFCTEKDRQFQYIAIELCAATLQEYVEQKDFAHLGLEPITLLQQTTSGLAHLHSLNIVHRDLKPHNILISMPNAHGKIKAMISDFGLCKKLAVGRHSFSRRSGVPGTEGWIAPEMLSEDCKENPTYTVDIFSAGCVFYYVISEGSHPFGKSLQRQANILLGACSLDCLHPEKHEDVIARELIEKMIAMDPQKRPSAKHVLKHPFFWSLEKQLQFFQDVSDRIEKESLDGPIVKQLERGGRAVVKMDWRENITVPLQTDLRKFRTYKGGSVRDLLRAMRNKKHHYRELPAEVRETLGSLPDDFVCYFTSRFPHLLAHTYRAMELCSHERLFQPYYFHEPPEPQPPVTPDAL

IC50 (IRE1α) [nM]	IC50 ([1]; Homo sapiens, ARPE-19, 4 h) [nM]	IC50 ([1]; 4 hour) [nM]	Compound
60	160	–	CC(C)n1nc(-c2cc(F)c(NS(=O)(=O)c3ccccc3Cl)cc2F)c2c(N)ncc(C3=CCC(NC4COC4)CC3)c21 (racemic) [racemic mixture of B10 & B11, N-(4-(4-amino-1-isopropyl-7-(4-(oxetan-3-ylamino)cyclohex-1-en-1-yl)-1H-pyrazolo[4,3-c]pyridin-3-yl)-2,5-difluorophenyl)-2-chlorobenzenesulfonamide]
60	3.3	–	CC(C)n1nc(-c2ccc(NS(=O)(=O)c3cc(Cl)ccc3F)c(F)c2)c2c(N)ncc(C3=CCC(NC4COC4)CC3)c21 (racemic) [racemic mixture of B14 & B15, N-(4-(4-amino-1-isopropyl-7-(4-(oxetan-3-ylamino)cyclohex-1-en-1-yl)-1H-pyrazolo[4,3-c]pyridin-3-yl)-2-fluorophenyl)-5-chloro-2-fluorobenzenesulfonamide]
13	94	–	Cc1ccc(F)c(S(=O)(=O)Nc2ccc(-c3nn(C(C)C)c4c(C5=CCC(NC6COC6)CC5)cnc(N)c34)cc2F)c1 (racemic) [racemic mixture of B16 & B17, N-(4-(4-amino-1-isopropyl-7-(4-(oxetan-3-ylamino)cyclohex-1-en-1-yl)-1H-pyrazolo[4,3-c]pyridin-3-yl)-2-fluorophenyl)-2-fluoro-5-methylbenzenesulfonamide]
26	52	–	CC(C)n1nc(-c2ccc(NS(=O)(=O)c3ccccc3Cl)c(F)c2)c2c(N)ncc(C3=CCC(NC4COC4)CC3)c21 (racemic) [racemic mixture of B56 & B57, N-(4-(4-amino-1-isopropyl-7-(4-(oxetan-3-ylamino)cyclohex-1-en-1-yl)-1H-pyrazolo[4,3-c]pyridin-3-yl)-2-fluorophenyl)-2-chlorobenzenesulfonamide]
61	92	–	CC(C)n1nc(-c2ccc(NS(=O)(=O)c3ccccc3F)c(F)c2)c2c(N)ncc(C3=CCC(NC4COC4)CC3)c21 (racemic) [racemic mixture of B58 & B59, N-(4-(4-amino-1-isopropyl-7-(4-(oxetan-3-ylamino)cyclohex-1-en-1-yl)-1H-pyrazolo[4,3-c]pyridin-3-yl)-2-fluorophenyl)-2-fluorobenzenesulfonamide]
40	100	–	CCn1nc(-c2ccc(NS(=O)(=O)c3ccccc3Cl)c(F)c2)c2c(N)ncc(C3=CCC(NC4COC4)CC3)c21 (racemic) [racemic mixture of B61 & B62, N-(4-(4-amino-1-ethyl-7-(4-(oxetan-3-ylamino)cyclohex-1-en-1-yl)-1H-pyrazolo[4,3-c]pyridin-3-yl)-2-fluorophenyl)-2-chlorobenzenesulfonamide]
2.4	–	30	CC(C)n1nc(-c2ccc(NS(=O)(=O)Cc3ccccc3F)c(F)c2)c2c(N)ncc(C3=CCC(NC4COC4)CC3)c21 (single isomer, unassigned) [Compound B1, N-(4-(4-amino-1-isopropyl-7-(4-(oxetan-3-ylamino)cyclohex-1-en-1-yl)-1H-pyrazolo[4,3-c]pyridin-3-yl)-2-fluorophenyl)-1-(2-fluorophenyl)methanesulfonamide]
1.2	6.8	–	COCC(C)NC1CC=C(c2cnc(N)c3c(-c4ccc(NS(=O)(=O)Cc5ccccc5Cl)c(F)c4)nn(C(C)C)c23)CC1 (single isomer, unassigned) [Compound B4, N-(4-(4-amino-1-isopropyl-7-(4-((1-methoxypropan-2-yl)amino)cyclohex-1-en-1-yl)-1H-pyrazolo[4,3-c]pyridin-3-yl)-2-fluorophenyl)-1-(2-chlorophenyl)methanesulfonamide]
1.2	–	6.5	COCC(C)NC1CC=C(c2cnc(N)c3c(-c4ccc(NS(=O)(=O)Cc5ccccc5Cl)c(F)c4)nn(C(C)C)c23)CC1 (single isomer, unassigned) [Compound B5, N-(4-(4-amino-1-isopropyl-7-(4-((1-methoxypropan-2-yl)amino)cyclohex-1-en-1-yl)-1H-pyrazolo[4,3-c]pyridin-3-yl)-2-fluorophenyl)-1-(2-chlorophenyl)methanesulfonamide]
21	–	410	CC(C)n1nc(-c2cc(F)c(NS(=O)(=O)Cc3ccccc3Cl)cc2F)c2c(N)ncc(C3=CCC(NC4COC4)CC3)c21 (single isomer, unassigned) [Compound B7, N-(4-(4-amino-1-isopropyl-7-(4-(oxetan-3-ylamino)cyclohex-1-en-1-yl)-1H-pyrazolo[4,3-c]pyridin-3-yl)-2,5-difluorophenyl)-1-(2-chlorophenyl)methanesulfonamide]
6.7	–	19	COc1ccc(Cl)c(S(=O)(=O)Nc2ccc(-c3nn(C(C)C)c4c(C5=CCC(NC6COC6)CC5)cnc(N)c34)cc2F)c1 (single isomer, unassigned) [Compound B8, N-(4-(4-amino-1-isopropyl-7-(4-(oxetan-3-ylamino)cyclohex-1-en-1-yl)-1H-pyrazolo[4,3-c]pyridin-3-yl)-2-fluorophenyl)-2-chloro-5-methoxybenzenesulfonamide]
70	–	150	COc1ccc(Cl)c(S(=O)(=O)Nc2ccc(-c3nn(C(C)C)c4c(C5=CCC(NC6COC6)CC5)cnc(N)c34)cc2F)c1 (single isomer, unassigned) [Compound B9, N-(4-(4-amino-1-isopropyl-7-(4-(oxetan-3-ylamino)cyclohex-1-en-1-yl)-1H-pyrazolo[4,3-c]pyridin-3-yl)-2-fluorophenyl)-2-chloro-5-methoxybenzenesulfonamide]
34	–	500	CC(C)n1nc(-c2cc(F)c(NS(=O)(=O)c3ccccc3Cl)cc2F)c2c(N)ncc(C3=CCC(NC4COC4)CC3)c21 (single isomer, unassigned) [Compound B11, N-(4-(4-amino-1-isopropyl-7-(4-(oxetan-3-ylamino)cyclohex-1-en-1-yl)-1H-pyrazolo[4,3-c]pyridin-3-yl)-2,5-difluorophenyl)-2-chlorobenzenesulfonamide]
5.2	–	90	CC(C)n1nc(-c2ccc(NS(=O)(=O)Cc3ccccc3Cl)c(F)c2)c2c(N)ncc(C3=CCC(NC4COC4)CC3)c21 (single isomer, unassigned) [Compound B13, N-(4-(4-amino-1-isopropyl-7-(4-(oxetan-3-ylamino)cyclohex-1-en-1-yl)-1H-pyrazolo[4,3-c]pyridin-3-yl)-2-fluorophenyl)-1-(2-chlorophenyl)methanesulfonamide]
6.8	–	160	CC(C)n1nc(-c2ccc(NS(=O)(=O)c3cc(Cl)ccc3F)c(F)c2)c2c(N)ncc(C3=CCC(NC4COC4)CC3)c21 (single isomer, unassigned) [Compound B14, N-(4-(4-amino-1-isopropyl-7-(4-(oxetan-3-ylamino)cyclohex-1-en-1-yl)-1H-pyrazolo[4,3-c]pyridin-3-yl)-2-fluorophenyl)-5-chloro-2-fluorobenzenesulfonamide]
1.4	–	24	CC(C)n1nc(-c2ccc(NS(=O)(=O)c3cc(Cl)ccc3F)c(F)c2)c2c(N)ncc(C3=CCC(NC4COC4)CC3)c21 (single isomer, unassigned) [Compound B15, N-(4-(4-amino-1-isopropyl-7-(4-(oxetan-3-ylamino)cyclohex-1-en-1-yl)-1H-pyrazolo[4,3-c]pyridin-3-yl)-2-fluorophenyl)-5-chloro-2-fluorobenzenesulfonamide]
–	5	–	COCCN[C@H]1CC[C@H](c2cnc(N)c3c(-c4cc(F)c(NS(=O)(=O)c5cc(Cl)ccc5Cl)cc4F)nn(C(C)C)c32)CC1 [Compound A61, N-(4-(4-amino-1-isopropyl-7-((1r,4r)-4-((2-methoxyethyl)amino)cyclohexyl)-1H-pyrazolo[4,3-c]pyridin-3-yl)-2,5-difluorophenyl)-2,5-dichlorobenzenesulfonamide]
–	6	–	CCc1ccc(Cl)c(S(=O)(=O)Nc2cc(F)c(-c3nn(C(C)C)c4c3c(N)ncc4[C@H]3CC[C@H](NCCOC)CC3)cc2F)c1 [Compound A62, N-(4-(4-amino-1-isopropyl-7-((1r,4r)-4-((2-methoxyethyl)amino)cyclohexyl)-1H-pyrazolo[4,3-c]pyridin-3-yl)-2,5-difluorophenyl)-2chloro-5-ethylbenzenesulfonamide]
–	13	–	CC(F)CN[C@H]1CC[C@H](c2cnc(N)c3c(-c4cc(F)c(NS(=O)(=O)c5ccccc5F)cc4F)nn(C(C)C)c32)CC1 (some centres unmarked) [Compound A63, N-(4-(4-amino-7-((1r,4r)-4-((2-fluoropropyl)amino)cyclohexyl)-1-isopropyl-1H-pyrazolo[4,3-c]pyridin-3-yl)-2,5-difluorophenyl)-2-fluorobenzenesulfonamide]
